From US12410185B2, “Compounds targeting mutant calreticulin” (MYELOPRO DIAGNOSTICS AND RESEARCH GmbH, priority 2018, dated 2025)

Tests used:
CALR wild-type cell line = experiment: 72 h dose response of hematoxylin, analogues and control compounds; assay type: cell-based; settings: 72 h assay; read-out: IC50 in wild-type cell line
Protocol: Ba/F3 and UT-7-TPO were plated 5.000 cells/well and 16.000 cells/well into 96-well plates with the desirable concentrations of compounds or cytokines added to a total volume of 100 ul. 72 hours later, the CellTiter-Glo luminescent Cell Viability Assay (Promega) was used to determine the cell viability. The luminescent signal was detected by a VICTOR Multilabel Plate Reader (PerkinElmer). Dose response data was analyzed by Graphpad Prism 7.0.
To further explore the chemical space of the compound, a few hematoxylin analogues were also tested (FIGS. 15 to 17). […] The compounds Protosappanin B (A-4) and RJ002 (B-2) were also tested. […] As a comparison, the clinically used chemotherapeutic drugs hydroxyurea and ruxolitinib were also tested in the cell models.

[1] = test system: Ba/F3-MPL cell lines carrying C-terminal truncated CALR; experiment: cytotoxicity assay in cell lines with C-terminal truncated CALR; assay type: cell-based, mouse; settings: truncated CALR mutations vs disease frameshift
Protocol: (§1) In order to further confirm the selective cytotoxicity of hematoxylin in CALR mutant cells, two-color competition assays were performed in both Ba/F3 and UT-7-TPO cells to assess the long-term efficacy of the compound (FIG. 9). […] The differential killing effect of hematoxylin could also be reproduced in the UT-7-TPO cell line. […] This reading frame encounters a stop codon shortly after the mutation and causes a truncation at the CALR C-terminus (FIG. 12). […] Moreover, CALR KO Ba/F3-MPL cell lines were tested for hematoxylin sensitivity.

[2] = test system: CALR KO Ba/F3-MPL cell lines; experiment: hematoxylin sensitivity of CALR knockout cell lines; assay type: cell-based, mouse; settings: CALR KO vs CALR WT clones
Protocol: as §1

[3] = test system: Ba/F3-MPL CALR mutated cell line; experiment: apoptosis assay by Annexin V/PI staining; assay type: cell-based, mouse; settings: 20 uM, 24 h
Protocol: (§2) Ba/F3-MPL CALR wild-type and mutant cell lines were treated with hematoxylin at 20 uM or the equivalent volume of DMSO for 24 h before collection. Annexin V Apoptosis Detection Kit (eBioscience, #88-8007-74) was used based on the manufacturer's instructions. 5 ul of Propidium Iodide Staining Solution (Invitrogen, #00-6990-50) was added to each sample for 10 min before being analyzed with the BD LSRFortessa™ cell analyzer without washing.

[4] = test system: Ba/F3-MPL CALR wild-type control; experiment: apoptosis assay by Annexin V/PI staining; assay type: cell-based, mouse; settings: 20 uM, 24 h
Protocol: as §2

mutant CALR protein = experiment: binding assay (data not shown)
wild-type CALR protein = wild-type CALR protein (Homo sapiens, UniProt P27797); experiment: binding assay (data not shown)
Chain of wild-type CALR protein (P27797 18-417): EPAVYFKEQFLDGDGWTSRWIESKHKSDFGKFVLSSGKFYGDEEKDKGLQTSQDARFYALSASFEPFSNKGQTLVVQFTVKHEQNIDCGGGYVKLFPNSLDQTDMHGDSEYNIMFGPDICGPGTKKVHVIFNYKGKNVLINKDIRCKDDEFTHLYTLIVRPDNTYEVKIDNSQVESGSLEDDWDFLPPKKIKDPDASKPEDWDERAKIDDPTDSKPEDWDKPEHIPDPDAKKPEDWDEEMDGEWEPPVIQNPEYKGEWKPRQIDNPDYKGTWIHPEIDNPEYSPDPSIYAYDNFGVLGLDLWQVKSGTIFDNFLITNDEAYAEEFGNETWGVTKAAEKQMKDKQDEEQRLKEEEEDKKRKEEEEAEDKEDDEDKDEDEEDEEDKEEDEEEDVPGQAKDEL

Oc1cc2c(cc1O)[C@@H]1c3ccc(O)c(O)c3OC[C@]1(O)C2 [hematoxylin, Hematoxylin]
IC50 (CALR wild-type cell line): 11.1 µM
hypersensitivity towards compound treatment [1]: did not show hypersensitivity
hypersensitivity towards the treatment [2]: did not show hypersensitivity
apoptotic cell numbers [3]: significant elevation of apoptotic cell numbers
apoptotic cell numbers [4]: not in the wild-type control
binding to mutant CALR protein (mutant CALR protein): bound
binding to wild-type CALR protein (wild-type CALR protein): bound
